# In patent publication US20120003156A1, “METHODS FOR TREATING NEOPLASIA BY INHIBITING LACTATE DEHYDROGENASE AND/OR NICOTINAMIDE PHOSPHORIBOSYLTRANSFERASE” (The Johns Hopkins University, priority 2008, published 2012):
# Entries after “also recorded” stand apart in the source; their conditions may differ.
# Legend:
# Assay in all cases: Cell population growth
# Format in all cases: cell-based, human
# Conditions in all cases: dose-response
# RCC4-VHL cells = test system: RCC4-VHL cells
# Protocol: (§1) P493 human lymphoma B cells were maintained in RPMI 1640 with 10% fetal bovine serum (FBS) and 1% penicillin-streptomycin. P198 human pancreatic cancer cells; RCC4, RCC4-VHL human renal carcinoma cells; MCF-7 and MDA-MB-453 breast cancer cells were maintained in high glucose (4.5 mg/ml) DMEM with 10% FBS and 1% penicillin-streptomycin. Non-hypoxic cells (20% O2) were maintained at 37° C. in a 5% CO2, 95% in an air incubator. Hypoxic cells (1% O2) were maintained in a controlled atmosphere chamber (PLAS-LABS, Lansing, Mich.) with a gas mixture containing 1% O2, 5% CO2, and 94% N2 at 37° C. for the indicated time. Bright live cells were counted daily in a hemacytometer using trypan blue dye to exclude dead cells. All cells were grown at a concentration of 10^5 cells/ml. All drugs treatment began at day 0.
# MCF-7 cells = test system: MCF-7 cells
# Protocol: as §1
# MDA-MB-453 cells = test system: MDA-MB-453 cells
# Protocol: as §1
compound,measurement,setting,value
"CCCc1c(O)c(O)c(C(=O)O)c2cc(Cc3ccccc3)c(C)cc12 [FX11, 2,3-dihydroxy-6-methyl-7-(phenylmethyl)-4-propylnaphthalene-1-carboxylic acid]",cell population growth,RCC4-VHL cells,inhibited cell population growth
same,cell population growth / sensitivity,MCF-7 cells,inhibited cell population growth; also recorded: more sensitive
same,cell population growth,MDA-MB-453 cells,inhibited cell population growth
